Measurements from patent publication US20250320496A1, “MODULATION OF ABCB11 GENE TRANSCRIPTION USING ANTISENSE OLIGONUCLEOTIDES TARGETING REGULATORY RNAS” (CAMP4 Therapeutics Corporation, priority 2022, published 2025).
Strand notation (5' to 3'): a small letter for the sugar, then the base; units joined by * are phosphorothioate-linked, units joined directly phosphodiester-linked; [ ] holds rarer units or linkages, { } end groups; capitals alone tell only the bases. e = 2'-O-(2-methoxyethyl) (MOE); l = locked nucleic acid (LNA); [5mC] = 5-methylcytosine; d = 2'-deoxy (DNA)

System: human ABCB11 mRNA
Assay: ASO treatment of primary human hepatocytes (PHH), ABCB11 mRNA by RT-qPCR normalized to B2M
Format: cell-based
Conditions: primary human hepatocytes, 5 μM ASO, normalized to untreated PHHs (UNT)
Summary of the method: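 Plated primary human hepatocytes were treated 4 h post-thaw with ASO (e.g., 1.25–10 μM; initial screen 5 μM) in medium containing 0.3 mg/ml Matrigel for 72 hrs. Total RNA was reverse-transcribed and ABCB11 mRNA measured by Taqman RT-qPCR, normalized to B2M, with fold change versus untreated PHHs.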

Row | Substance | ABCB11 mRNA FC (5 μM ASO vs. UNT) [fold change]
1 | CO-7003 (antisense eG*eT*eG*eA*eG*lG*e[5mC]*eA*eT*e[5mC]*lA*eG*eG*eT*eA*lA*eG*eT*eT*e[5mC]) | 1.066
2 | CO-7004 (antisense eG*eT*eG*eA*lG*eG*e[5mC]*eA*eT*l[5mC]*eA*eG*eG*eT*lA*eA*eG*eT*eT*e[5mC]) | 1.285
3 | CO-7005 (antisense eG*eT*eG*eG*eA*eT*dG*dT*dA*dG*dA*dT*dG*dA*dA*dT*eG*eG*e[5mC]*eA*eA*eG) | 1.257
4 | CO-7006 (antisense eG*eT*eG*eG*eA*eT*eG*eT*eA*eG*eA*eT*eG*eA*eA*eT*eG*eG*e[5mC]*eA*eA*eG) | 1.279
5 | CO-7007 (antisense eG*eT*eG*eG*eA*dT*dG*dT*eA*dG*dA*dT*dG*eA*dA*dT*dG*eG*e[5mC]*eA*eA*eG) | 0.963
6 | CO-7008 (antisense eG*eT*eG*eG*eA*lT*dG*dT*lA*dG*dA*dT*dG*lA*dA*dT*lG*eG*e[5mC]*eA*eA*eG) | 1.175
7 | CO-7009 (antisense eT*eG*eT*eG*eG*eA*eT*dG*dT*dA*dGdA*dT*dG*dA*dA*dT*eG*eG*e[5mC]*eA*eA*eG*eG) | 1.289
8 | CO-7010 (antisense eT*eG*eT*eG*eG*eA*eT*eG*eT*eA*eG*eA*eT*eG*eA*eA*eT*eG*eG*e[5mC]*eA*eA*eG*eG) | 1.293
9 | CO-7011 (antisense eT*eG*eT*eG*eG*dA*dT*eG*dT*dA*eG*dA*dT*eG*dA*dA*eT*dG*dG*e[5mC]*eA*eA*eG*eG) | 1.284
10 | CO-7012 (antisense eT*eG*eT*eG*eG*dA*dT*lG*dT*dA*lG*dA*dT*lG*dA*dA*lT*dG*dG*e[5mC]*eA*eA*eG*eG) | 0.985
11 | CO-7013 (antisense eA*eG*eT*eG*eA*eG*dG*d[5mC]*dA*dT*d[5mC]*dA*dG*dG*dT*dA*eA*eG*eT*eT*e[5mC]*e[5mC]) | 0.997
12 | CO-7014 (antisense eA*eG*eT*eG*eA*eG*eG*e[5mC]*eA*eT*e[5mC]*eA*eG*eG*eT*eA*eA*eG*eT*eT*e[5mC]*e[5mC]) | 1.293
13 | CO-7015 (antisense eA*eG*eT*eG*eA*dG*dG*d[5mC]*eA*dT*d[5mC]*dA*dG*eG*dT*dA*dA*eG*eT*eT*e[5mC]*e[5mC]) | 1.257
14 | CO-7016 (antisense eA*eG*eT*eG*eA*lG*dG*d[5mC]*lA*dT*d[5mC]*dA*dG*lG*dT*dA*lA*eG*eT*eT*e[5mC]*e[5mC]) | 1.278
15 | CO-7017 (antisense eA*eA*eG*eT*eG*eA*eG*dG*d[5mC]*dA*dT*d[5mC]*dA*dG*dG*dT*dA*eA*eG*eT*eT*e[5mC]*e[5mC]*eT) | 1.182
16 | CO-7018 (antisense eA*eA*eG*eT*eG*eA*eG*eG*e[5mC]*eA*eT*e[5mC]*eA*eG*eG*eT*eA*eA*eG*eT*eT*e[5mC]*e[5mC]*eT) | 1.249
17 | CO-7019 (antisense eA*eA*eG*eT*eG*dA*dG*eG*d[5mC]*dA*eT*d[5mC]*dA*eG*dG*dT*eA*dA*dG*eT*eT*e[5mC]*e[5mC]*eT) | 1.284
18 | CO-7020 (antisense eA*eA*eG*eT*eG*dA*dG*lG*d[5mC]*dA*lT*d[5mC]*dA*lG*dG*dT*lA*dA*dG*eT*eT*e[5mC]*e[5mC]*eT) | 1.133
19 | CO-7022 (antisense eT*e[5mC]*eT*eG*eG*dA*dA*dA*dA*dT*dA*dA*dT*dG*d[5mC]*e[5mC]*eT*eT*eT*e[5mC]) | 1.224
20 | CO-7023 (antisense e[5mC]*eT*eT*eA*eT*e[5mC]*eT*eG*eG*eA*eA*eA*eA*eT*eA*eA*eT*eG*e[5mC]*e[5mC]) | 1.338
21 | CO-7024 (antisense eG*e[5mC]*eT*eT*eA*eT*e[5mC]*eT*eG*eG*eA*eA*eA*eA*eT*eA*eA*eT*eG*e[5mC]) | 1.415
22 | CO-7025 (antisense eA*eG*eT*eG*eA*eG*e[5mC]*eT*eT*eA*eT*e[5mC]*eT*eG*eG*eA*eA*eA*eA*eT) | 1.259
23 | CO-7026 (antisense eA*e[5mC]*eA*eG*eT*eG*eA*eG*e[5mC]*eT*eT*eA*eT*e[5mC]*eT*eG*eG*eA*eA*eA) | 1.158

Row | Substance | ABCB11 mRNA FC (5 μM ASO vs. UNT) [fold change]
24 | CO-7027 (antisense e[5mC]*eG*eA*e[5mC]*eA*eG*eT*eG*eA*eG*e[5mC]*eT*eT*eA*eT*e[5mC]*eT*eG*eG*eA) | 1.304
25 | CO-7028 (antisense eA*e[5mC]*e[5mC]*eG*eA*e[5mC]*eA*eG*eT*eG*eA*eG*e[5mC]*eT*eT*eA*eT*e[5mC]*eT*eG) | 1.49
26 | CO-7030 (antisense AGAATCGCTGTGGCAGTTAA; fully 2'-MOE, mixed PS/PO, 5-methylcytosine; listed as RNA; modified_base 1..20: mod_base = OTHER; note = Phosphorothioate linkage; note = 2'-O-(2-methoxyethyl) ribonucleotide; modified_base 6: mod_base = OTHER; note = 5-methyl cytidine; modified_base 8: mod_base) | 1.372
27 | CO-7031 (antisense eA*eA*eA*eG*eA*eA*eT*e[5mC]*eG*e[5mC]*eT*eG*eT*eG*eG*e[5mC]*eA*eG*eT*eT) | 1.212
28 | CO-7032 (antisense eA*e[5mC]*eA*eA*eA*eG*eA*eA*eT*e[5mC]*eG*e[5mC]*eT*eG*eT*eG*eG*e[5mC]*eA*eG) | 1.093
29 | CO-7033 (antisense eG*eA*eG*eA*e[5mC]*eA*eA*eA*eG*eA*eA*eT*e[5mC]*eG*e[5mC]*eT*eG*eT*eG*eG) | 1.316
30 | CO-7034 (antisense eT*eT*eA*eG*eA*eG*eA*e[5mC]*eA*eA*eA*eG*eA*eA*eT*e[5mC]*eG*e[5mC]*eT*eG) | 1.097
31 | CO-7035 (antisense e[5mC]*eA*eT*eT*eT*dA*dG*dA*dG*dA*d[5mC]*dA*dA*dA*dG*eA*eA*eT*e[5mC]*eG) | 1.047
32 | CO-7036 (antisense eG*eT*eA*e[5mC]*eA*eT*eT*eT*eA*eG*eA*eG*eA*e[5mC]*eA*eA*eA*eG*eA*eA) | 1.129
33 | CO-7037 (antisense e[5mC]*eT*eG*eT*eA*e[5mC]*eA*eT*eT*eT*eA*eG*eA*eG*eA*e[5mC]*eA*eA*eA*eG) | 1.136
34 | CO-7038 (antisense eA*eA*e[5mC]*eT*eG*eT*eA*e[5mC]*eA*eT*eT*eT*eA*eG*eA*eG*eA*e[5mC]*eA*eA) | 1.189
35 | CO-7040 (antisense eA*eA*eG*eA*eG*eG*eA*eA*eA*eG*eA*eA*e[5mC]*eT*eG*eG*e[5mC]*e[5mC]*eG*eG) | 1.267
36 | CO-7041 (antisense eG*eT*e[5mC]*eA*eA*eG*eA*eGeG*eA*eA*eA*eG*eA*eA*e[5mC]*eT*eG*eG*e[5mC]) | 1.15
37 | CO-7042 (antisense e[5mC]*eT*eT*eG*eG*eT*e[5mC]*eA*eA*eG*eA*eG*eG*eA*eA*eA*eG*eA*eA*e[5mC]) | 1.132
38 | CO-7043 (antisense eT*eT*eG*e[5mC]*eT*eT*eG*eG*eT*e[5mC]*eA*eA*eG*eA*eG*eG*eA*eA*eA*eG) | 1.1
39 | CO-7044 (antisense eT*eT*eT*eT*eG*e[5mC]*eT*eT*eG*eG*eT*e[5mC]*eA*eA*eG*eA*eG*eG*eA*eA) | 0.943
40 | CO-7045 (antisense eT*eG*eT*eT*eT*dT*dG*d[5mC]*dT*dT*dG*dG*dT*d[5mC]*dA*eA*eG*eA*eG*eG) | 1.112
41 | CO-7046 (antisense eT*eG*eT*eG*eT*eT*eT*eT*eG*e[5mC]*eT*eT*eG*eG*eT*e[5mC]*eA*eA*eG*eA) | 1.243
42 | CO-7047 (antisense eG*eA*eG*eT*eT*eG*eT*eG*eT*eT*eT*eT*eG*e[5mC]*eT*eT*eG*eG*eT*e[5mC]) | 1.175
43 | CO-7048 (antisense eT*eG*eG*eA*eG*eT*eT*eG*eT*eG*eT*eT*eT*eT*eG*e[5mC]*eT*eT*eG*eG) | 1.175
44 | CO-7050 (antisense eT*eT*eG*eG*eT*eT*e[5mC]*e[5mC]*e[5mC]*e[5mC]*e[5mC]*eT*eG*e[5mC]*eT*eG*eT*eG*e[5mC]*eT) | 1.026
45 | CO-7051 (antisense eA*e[5mC]*e[5mC]*eT*eT*eG*eG*eT*eT*e[5mC]*e[5mC]*e[5mC]*e[5mC]*e[5mC]*eT*eG*e[5mC]*eT*eG*eT) | 1.201
46 | CO-7052 (antisense eT*e[5mC]*eA*e[5mC]*e[5mC]*eT*eT*eG*eG*eT*eT*e[5mC]*e[5mC]*e[5mC]*e[5mC]*e[5mC]*eT*eG*e[5mC]*eT) | 1.046
